Measurements as given in patent EP2050758A1, “New polypeptides and uses thereof in cancer therapy” (INSTITUT NATIONAL DE LA SANTE ET DE LA RECHERCHE MEDICALE …, priority 2007, dated 2009).

Key:
[1] = test system: ATPase domain of HSP70; conditions: MAMELAK & LINGWOOD, J. Biol. Chem. 2001; cited from earlier work
[2] = test system: B16F10 melanoma cells; assay: Tumor growth of aptamer-expressing B16F10 cells injected subcutaneously into syngeneic mice; type: in vivo, C57/B16 mice; conditions: mice bearing control tumors (wt B16F10 and B16F10-A0), cisplatin 10 mg/kg
Text: To determine whether the chemosensitizing effect of A8 and A18 aptamers observed in vitro was also detected in vivo, mouse B16F10 melanoma cells were stably transfected with the aptamer expression vectors (A8, A18 and, as a control, A0). Stably transfected cells were selected using G418 (SIGMA) according to the manufacturer's instruction.
Exponentially growing B16F10 cells (wild type and aptamers-transfected) were harvested, washed in PBS, and resuspended in RPMI medium without foetal bovine serum (FBS) to a concentration of 2x10^5 B16F10 cells in 100 µl. B16F10 cells were then injected subcutaneously into the right side of syngeneic C57/B16 mice (9 mice/group). Next, some mice bearing B16F10-A0, B16F10-A8 or B16F10-A18 tumors were treated with cisplatin (10 mg/kg), given intraperitonealy as a single dose at day 6 after tumor cells injection. Tumor volume was evaluated for all mice every two days, using a caliper to measure two perpendicular diameters.

| Compound | binding to the ATPase domain of HSP70 [1] | effect of cisplatin treatment on the size of the tumors [2] |
| --- | --- | --- |
| 3'-sulfogalactosyl ceramide [SGC] | known to bind |  |
| 3'-sulfogalactosylglycerolipid [SGG] | known to bind |  |
| N.N.[Cl][Pt][Cl] [cisplatin] |  | slightly reduced the size of the tumors |
